Reference: US20250018014A1, “METHOD FOR TREATING AND/OR PREVENTING REGNASE-1-RELATED DISEASE” (OSAKA UNIVERSITY, priority 2018, published 2025)
Where two headings read alike, the source gives them in different places. Residues, ends and D or L forms follow the SMILES beside them.

Legend:
[1] = molecular target: T1, FL_Reg1 (full-length human Regnase-1) phosphorylation by TBK1 (Homo sapiens, UniProt Q5D1E8); assay: Regnase-1 phosphorylation inhibition by compounds (AlphaScreen), TBK1, full-length Regnase-1; assay type: biochemical
T1 construct: made in house; host or cells: Expi293 cells
T1 sequence (Q5D1E8 1-599): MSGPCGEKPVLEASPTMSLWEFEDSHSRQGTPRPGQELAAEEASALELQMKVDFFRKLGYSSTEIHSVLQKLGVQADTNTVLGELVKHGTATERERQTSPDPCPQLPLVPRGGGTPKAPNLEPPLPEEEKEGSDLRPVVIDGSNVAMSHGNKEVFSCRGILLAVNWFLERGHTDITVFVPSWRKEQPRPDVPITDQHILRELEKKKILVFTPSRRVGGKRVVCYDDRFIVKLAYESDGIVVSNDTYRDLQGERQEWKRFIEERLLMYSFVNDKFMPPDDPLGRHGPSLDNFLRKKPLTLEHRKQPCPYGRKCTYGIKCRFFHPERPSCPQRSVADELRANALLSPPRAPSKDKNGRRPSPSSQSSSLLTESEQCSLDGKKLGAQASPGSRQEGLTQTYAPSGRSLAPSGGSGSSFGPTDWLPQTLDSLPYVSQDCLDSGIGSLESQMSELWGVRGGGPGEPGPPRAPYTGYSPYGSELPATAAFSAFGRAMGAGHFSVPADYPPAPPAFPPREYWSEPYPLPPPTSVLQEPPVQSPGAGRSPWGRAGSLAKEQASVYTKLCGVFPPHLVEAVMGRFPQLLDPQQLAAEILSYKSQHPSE
Procedure, shortened: (§1)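 FLAG/BirA-tagged human Regnase-1 constructs (full-length, 1–546 or 301–599), expressed in Expi293 cells, were used at 2 nM with compound and phosphorylated by IKKβ or TBK1 with 10 μM ATP, DTT, vanadate and MnCl2 for 2 h at room temperature. Phospho-Regnase-1 was read by AlphaScreen; IC50 came from % inhibition curves normalised to DMSO and Regnase-1-alone signals.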

[2] = molecular target: T2, binding between TBK1 and full-length Regnase-1 (FL_Reg1) (Homo sapiens, UniProt Q5D1E8); assay: Inhibition of kinase-Regnase-1 binding by the compounds (AlphaScreen), TBK1
T2 construct: made in house; host or cells: Expi293 cells
T2 sequence (Q5D1E8 1-599): T1 sequence (Q5D1E8 1-599)
Procedure, shortened: (§2)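 FLAG-tagged, biotin-acceptor-tagged full-length human Regnase-1 was expressed in Expi293 cells. It was mixed at 2.5 nM with compound, then 2.5 nM IKKβ or TBK1 was added for 2 h at room temperature. Binding was read with anti-FLAG acceptor and glutathione donor beads; IC50 came from dose-response inhibition relative to Regnase-1 alone and DMSO.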

[3] = molecular target: T3, binding between IKKβ and full-length Regnase-1 (FL_Reg1) (Homo sapiens, UniProt Q5D1E8); assay: Inhibition of kinase-Regnase-1 binding by the compounds (AlphaScreen), IKKβ
T3 construct: made in house; host or cells: Expi293 cells
T3 sequence (Q5D1E8 1-599): T1 sequence (Q5D1E8 1-599)
Procedure, shortened: as §2

[4] = molecular target: T4, FL_Reg1 (full-length human Regnase-1) phosphorylation by IKKβ (Homo sapiens, UniProt Q5D1E8); assay: Regnase-1 phosphorylation inhibition by compounds (AlphaScreen), IKKβ, full-length Regnase-1; assay type: biochemical
T4 construct: made in house; host or cells: Expi293 cells
T4 sequence (Q5D1E8 1-599): T1 sequence (Q5D1E8 1-599)
Procedure, shortened: as §1

[5] = Table 13, phosphorylation by TBK1, read-out: Phosphorylation inhibition FL_Reg1, 50% inhibition concentration (TBK1)
[6] = Table 13, binding between TBK1 and Regnase-1, read-out: Binding inhibition FL_Reg1, 50% inhibition concentration (TBK1)
[7] = Table 14, binding between IKKβ and Regnase-1, read-out: Binding inhibition FL_Reg1, 50% inhibition concentration (IKKβ)
[8] = Table 14, phosphorylation by IKKβ, read-out: Phosphorylation inhibition FL_Reg1, 50% inhibition concentration (IKKβ)
[9] = Table 11, 2 nM Regnase-1, AlphaScreen, read-out: 50% inhibition concentration, Regnase-1 phosphorylation, FL_Reg1, TBK1
[10] = Table 12, 2.5 nM Regnase-1, 2.5 nM TBK1, AlphaScreen, read-out: 50% inhibition concentration, binding between Regnase-1 and TBK1, FL_Reg1
[11] = Table 12, 2.5 nM Regnase-1, 2.5 nM IKKβ, AlphaScreen, read-out: 50% inhibition concentration, binding between Regnase-1 and IKKβ, FL_Reg1
[12] = Table 11, 2 nM Regnase-1, AlphaScreen, read-out: 50% inhibition concentration, Regnase-1 phosphorylation, FL_Reg1, IKKβ

Compound	IC50 [1, 5]	IC50 [2, 6]	IC50 [3, 7]	IC50 [4, 8]	IC50 [1, 9]	IC50 [2, 10]	IC50 [3, 11]	IC50 [4, 12]
CC[C@H](C)[C@@H]1NC(=O)[C@H](Cc2c[nH]c3ccccc23)NC(=O)[C@@H](Cc2ccccc2)NC(=O)[C@H](CCCCN)NC(=O)[C@H](C)N(C)C(=O)C[C@@H](C(=O)N2CCCC2)NC(=O)[C@H](CCC(=O)O)NC(=O)[C@H](Cc2ccccc2)NC(=O)[C@H](CO)NC(=O)[C@H](Cc2c[nH]cn2)NC(=O)[C@H](Cc2c[nH]cn2)NC1=O [PP20] (HELM PEPTIDE1{[meA].K.[dF].W.I.H.H.S.F.E.D.[C1CCN([*:1])C1]}$PEPTIDE1,PEPTIDE1,1:R1-11:R3$$$V2.0)	38.5 µM	47.6 µM	> 62.1 µM	24.7 µM				
CC[C@H](C)[C@@H]1NC(=O)[C@H](CC(N)=O)NC(=O)[C@H](Cc2ccc(O)cc2)NC(=O)[C@H](Cc2c[nH]c3ccccc23)NC(=O)[C@H](CO)NC(=O)[C@H](CC(N)=O)NC(=O)[C@H](C)NC(=O)[C@H](Cc2ccc(O)cc2)NC(=O)CNC(=O)[C@H](C)N(C)C(=O)C[C@@H](C(=O)N2CCCC2)NC(=O)[C@H](Cc2c[nH]c3ccccc23)NC1=O [PP2] (HELM PEPTIDE1{[meA].G.Y.A.N.S.W.Y.N.I.W.D.[C1CCN([*:1])C1]}$PEPTIDE1,PEPTIDE1,1:R1-12:R3$$$V2.0)					21.7 µM	15.5 µM	35.8 µM	16.6 µM
CC[C@H](C)[C@@H]1NC(=O)[C@H](CC(=O)O)NC(=O)[C@H](C)N(C)C(=O)C[C@@H](C(=O)N2CCCC2)NC(=O)[C@H](Cc2c[nH]c3ccccc23)NC(=O)[C@H](CC(=O)O)NC(=O)[C@H](Cc2c[nH]c3ccccc23)NC(=O)[C@H](Cc2ccc(O)cc2)NC(=O)[C@H](CC(=O)O)NC(=O)[C@H](Cc2ccccc2)NC(=O)[C@H](Cc2c[nH]c3ccccc23)NC1=O [PP17] (HELM PEPTIDE1{[meA].D.I.W.F.D.Y.W.D.W.D.[C1CCN([*:1])C1]}$PEPTIDE1,PEPTIDE1,1:R1-11:R3$$$V2.0)	< 0.06 µM	< 0.06 µM	< 0.06 µM	0.5 µM				
CC[C@H](C)[C@@H]1NC(=O)[C@H](CCCCN)NC(=O)[C@H](Cc2ccc(O)cc2)NC(=O)[C@H](Cc2ccccc2)NC(=O)[C@H](C(C)C)NC(=O)[C@H](C)N(C)C(=O)C[C@@H](C(=O)N2CCCC2)NC(=O)[C@H](Cc2c[nH]c3ccccc23)NC(=O)[C@H](CC(N)=O)NC(=O)[C@H](Cc2ccc(O)cc2)NC(=O)[C@H](Cc2c[nH]c3ccccc23)NC1=O [PP19] (HELM PEPTIDE1{[meA].V.F.Y.K.I.W.Y.N.W.D.[C1CCN([*:1])C1]}$PEPTIDE1,PEPTIDE1,1:R1-11:R3$$$V2.0)	3.7 µM	2.4 µM	5.8 µM	5.4 µM				
CC[C@H](C)[C@@H]1NC(=O)[C@H](Cc2c[nH]c3ccccc23)NC(=O)[C@H](CCCNC(=N)N)NC(=O)[C@H](Cc2ccccc2)NC(=O)[C@H](CCC(N)=O)NC(=O)[C@H](C)NC(=O)[C@H](Cc2ccccc2)NC(=O)[C@H](CCCCN)NC(=O)[C@H](C)N(C)C(=O)C[C@@H](C(=O)N2CCCC2)NC(=O)[C@@H]2CCCN2C(=O)[C@H](Cc2ccc(O)cc2)NC1=O [PP11] (HELM PEPTIDE1{[meA].K.F.A.Q.F.R.W.I.Y.P.D.[C1CCN([*:1])C1]}$PEPTIDE1,PEPTIDE1,1:R1-12:R3$$$V2.0)	29.1 µM	60.9 µM	> 62.1 µM	22.3 µM				
CC[C@H](C)[C@@H]1NC(=O)[C@H](CO)NC(=O)[C@H](CCCNC(=N)N)NC(=O)[C@H](Cc2ccc(O)cc2)NC(=O)[C@H](Cc2ccc(O)cc2)NC(=O)[C@H](Cc2c[nH]c3ccccc23)NC(=O)[C@H](CO)NC(=O)[C@H](CCC(N)=O)NC(=O)[C@H](Cc2ccc(O)cc2)NC(=O)[C@H](CC(N)=O)NC(=O)[C@H](C)N(C)C(=O)C[C@@H](C(=O)N2CCCC2)NC(=O)[C@H](Cc2c[nH]c3ccccc23)NC1=O [PP10] (HELM PEPTIDE1{[meA].N.Y.Q.S.W.Y.Y.R.S.I.W.D.[C1CCN([*:1])C1]}$PEPTIDE1,PEPTIDE1,1:R1-13:R3$$$V2.0)	0.2 µM	9.8 µM	11.4 µM	0.5 µM				
CC[C@H](C)[C@@H]1NC(=O)[C@H](CCCNC(=N)N)NC(=O)[C@H](Cc2ccc(O)cc2)NC(=O)[C@H](Cc2c[nH]c3ccccc23)NC(=O)[C@H](C)NC(=O)[C@H](CO)NC(=O)[C@H](C)NC(=O)[C@H](Cc2c[nH]cn2)NC(=O)[C@H](CCCCN)NC(=O)[C@@H](C)N(C)C(=O)C[C@@H](C(=O)N2CCCC2)NC(=O)[C@H](Cc2c[nH]c3ccccc23)NC1=O [PP3] (HELM PEPTIDE1{[C[C@H](C(=O)[*:2])N(C)[*:1]].K.H.A.S.A.W.Y.R.I.W.D.[C1CCN([*:1])C1]}$PEPTIDE1,PEPTIDE1,1:R1-12:R3$$$V2.0)					3.9 µM	3.1 µM	8.3 µM	4.6 µM
CC[C@H](C)[C@@H]1NC(=O)[C@H](CC(N)=O)NC(=O)[C@H]([C@@H](C)CC)NC(=O)[C@H](Cc2ccc(O)cc2)NC(=O)[C@H](Cc2c[nH]c3ccccc23)NC(=O)[C@H](CO)NC(=O)[C@H](CC(N)=O)NC(=O)[C@H](C)N(C)C(=O)C[C@@H](C(=O)N2CCCC2)NC(=O)[C@H](Cc2c[nH]cn2)NC(=O)CNC(=O)[C@H](Cc2c[nH]c3ccccc23)NC1=O [PP15] (HELM PEPTIDE1{[meA].N.S.W.Y.I.N.I.W.G.H.D.[C1CCN([*:1])C1]}$PEPTIDE1,PEPTIDE1,1:R1-12:R3$$$V2.0)	8.5 µM	13.7 µM	33.7 µM	5.6 µM				
CC[C@H](C)[C@@H]1NC(=O)[C@H](CCCCN)NC(=O)[C@H](Cc2ccc(O)cc2)NC(=O)[C@H](Cc2c[nH]c3ccccc23)NC(=O)[C@H](CO)NC(=O)[C@H](CO)NC(=O)[C@H]([C@@H](C)O)NC(=O)[C@@H]2CCCN2C(=O)[C@@H](C)N(C)C(=O)C[C@@H](C(=O)N2CCCC2)NC(=O)[C@H](Cc2c[nH]c3ccccc23)NC1=O [PP23] (HELM PEPTIDE1{[C[C@H](C(=O)[*:2])N(C)[*:1]].P.T.S.S.W.Y.K.I.W.D.[C1CCN([*:1])C1]}$PEPTIDE1,PEPTIDE1,1:R1-11:R3$$$V2.0)	18.8 µM	9.2 µM	41.3 µM	25.6 µM				
